Reference: publication PMC3103136 (2011)

Assays:
[1] = molecular target: human tear lipocalin (TL) mutant S61/S153 (Homo sapiens, UniProt P31025, C119L/C171S/C79S); test: fluorescence titration, steady-state deconvoluted with time-resolved lifetimes; type: binding
[2] = molecular target: T1, human tear lipocalin (TL) (Homo sapiens, UniProt P31025, C119L); test: as above; type: binding
[3] = molecular target: T1, human tear lipocalin (TL); test: time-dependent fluorescence binding kinetics
[4] = molecular target: human tear lipocalin (TL) mutant S61/S153 (Homo sapiens, UniProt P31025, C79S/C119L/C171S); test: time-dependent fluorescence binding kinetics
human tear lipocalin (TL) mutant S61/S153 (Homo sapiens, UniProt P31025, C79S/C119L/C171S), sequence (P31025 19-176 C79S/C119L/C171S): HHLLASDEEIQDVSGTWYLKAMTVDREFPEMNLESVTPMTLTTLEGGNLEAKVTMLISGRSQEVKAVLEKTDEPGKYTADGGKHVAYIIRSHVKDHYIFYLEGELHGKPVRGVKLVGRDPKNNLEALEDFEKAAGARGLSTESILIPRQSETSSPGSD

T1 sequence (P31025 19-176 C119L): as the sequence (P31025 19-176 C79S/C119L/C171S) above, with S61C, S153C counted along it
human tear lipocalin (TL) mutant S61/S153 (Homo sapiens, UniProt P31025, C119L/C171S/C79S), sequence (P31025 19-176 C79S/C119L/C171S): as the sequence (P31025 19-176 C79S/C119L/C171S) above

| Kd [1] [nM] | Kd [2] [nM] | Structure (SMILES) | time-dependent fluorescence binding kinetics (time constant) [3] [s] | time-dependent fluorescence binding kinetics (time constant) [4] [s] |
| --- | --- | --- | --- | --- |
| 2600 ± 300 | 2400 ± 300 | CN(C)c1cccc2c(S(=O)(=O)NCCCCCCCCCCC(=O)O)cccc12 [DAUDA, 11-((5-dimethylaminonaphthalene-1-sulfonyl)amino)undecanoic acid] | – | – |
| – | – | CCCCCCCCCCCCCCCC(=O)OC[C@H](COP(=O)([O-])OCC[N+](C)(C)C)OC(=O)CCCCCCCCCCCNc1ccc([N+](=O)[O-])c2nonc12 [NBD C12-HPC, 2-(12-(7-nitrobenz-2-oxa-1,3-diazol-4-yl)amino)dodecanoyl-1-hexadecanoyl-sn-glycero-3-phosphocholine] | 32.2 ± 0.2 | 22.2 ± 0.4 |
| – | – | C[C@H](CNc1ccc([N+](=O)[O-])c2nonc12)[C@H]1CC[C@H]2[C@@H]3CC=C4C[C@@H](O)CC[C@]4(C)[C@H]3CC[C@]12C [NBD cholesterol, 22-(N-(7-nitrobenz-2-oxa-1,3-diazol-4-yl)amino)-23,24-bisnor-5-cholen-3\u03B2-ol] | 11.8 ± 0.2 | 3.3 ± 0.1 |
